A short description of data set [1]: Antiviral activity against HIV1 BH10 harboring wild type reverse transcriptase infected in primary MT4 cells assessed as inhibition of virus-induced cytopathogenicity after 4 days by MTS assay. The following applies: Human immunodeficiency virus 1, MT4, 96 h. The format is functional, cell-based, Human immunodeficiency virus type 1 BH10.
The test system of data set [2] is Human immunodeficiency virus 1. Briefly: Antiviral activity against HIV1 harboring reverse transcriptase Y181C mutant infected in primary MT4 cells assessed as inhibition of virus-induced cytopathogenicity after 4 days by MTS assay. It counts as functional, organism-based. The settings on record: Human immunodeficiency virus 1, MT4, 96 h. (Cytopathic effects are the visible damage that an infection or toxin causes in cultured cells.)

Data set [3] has as its system Human immunodeficiency virus 1. Briefly: Antiviral activity against HIV1 harboring reverse transcriptase K103N mutant infected in primary MT4 cells assessed as inhibition of virus-induced cytopathogenicity after 4 days by MTS assay. The format is functional, organism-based. The following applies: Human immunodeficiency virus 1, MT4, 96 h.
For data set [4], the system named is Human immunodeficiency virus 1. Description: Antiviral activity against HIV1 harboring reverse transcriptase Y181C/K103N double mutant infected in primary MT4 cells assessed as inhibition of virus-induced cytopathogenicity after 4 days by MTS assay. It counts as functional, organism-based. The settings on record: Human immunodeficiency virus 1, MT4, 96 h.
Data set [5] in a line: Aqueous solubility of the compound at pH 7. It counts as physicochemical. The following applies: aqueous medium.
Data set [6] can be described thus: Antiviral activity against HIV1 BH10 harboring wild type reverse transcriptase infected in secondary MT4 cells assessed as inhibition of virus-induced cytopathogenicity after 4 days by MTS assay. The settings on record: Human immunodeficiency virus 1, MT4, 96 h. It counts as functional, cell-based, Human immunodeficiency virus type 1 BH10.
Data set [7] concerns Human immunodeficiency virus 1. Briefly: Antiviral activity against HIV1 harboring reverse transcriptase Y181C mutant infected in secondary MT4 cells assessed as inhibition of virus-induced cytopathogenicity after 4 days by MTS assay. It counts as functional, organism-based. The following applies: Human immunodeficiency virus 1, MT4, 96 h.
Data set [8] deals with Human immunodeficiency virus 1. Description: Antiviral activity against HIV1 harboring reverse transcriptase K103N mutant infected in secondary MT4 cells assessed as inhibition of virus-induced cytopathogenicity after 4 days by MTS assay. It counts as functional, organism-based. The following applies: Human immunodeficiency virus 1, MT4, 96 h.
The test system of data set [9] is Human immunodeficiency virus 1. Description: Antiviral activity against HIV1 harboring reverse transcriptase Y181C/K103N double mutant infected in secondary MT4 cells assessed as inhibition of virus-induced cytopathogenicity after 4 days by MTS assay. It counts as functional, organism-based. The settings on record: Human immunodeficiency virus 1, MT4, 96 h.

Data on eleven compounds can be found in ChEMBL document CHEMBL3779828, “Discovery of the Aryl-phospho-indole IDX899, a Highly Potent Anti-HIV Non-nucleoside Reverse Transcriptase Inhibitor” (J Med Chem, 2016).

The term EC50 denotes the concentration needed to bring the measured effect to its halfway point. The term solubility denotes how much of the substance goes into solution per volume. The low end stands for a poorly soluble substance, the high end for a readily soluble substance.

Values after ≈ are worked out from the molar mass of the structure shown. A value given as a limit tells only on which side of the number the result lay.

Turning to `O=C1Nc2ccc(Cl)cc2[C@@](C#CC2CC2)(C(F)(F)F)O1` [EFAVIRENZ], the EC50 amounted to 0.7 nM in data set [1], 1.8 nM in data set [2], 37 nM in data set [3] and 58 nM in [4]. Besides, the solubility in [5] is under 0.5 µM.
For `COP(=O)(c1cc(C)cc(C#N)c1)c1c(C(N)=O)[nH]c2ccc(Cl)cc12` (configuration not stated), the concentration for a half-maximal effect (EC50) in [1] worked out at 1 nM; in data set [2], 3.8 nM; in data set [3] it was 18.4 nM; in data set [4], 162 nM.
As for `COP(=O)(c1cc(C)cc(F)c1)c1c(C(N)=O)[nH]c2ccc(Cl)cc12` (configuration not stated), the EC50 amounted to 0.2 nM in data set [1], 3.4 nM in data set [2], 0.5 nM in [3] and 69 nM in data set [4]. For the same compound, the solubility in data set [5] was found to be 1.7 µM (≈ 0.647 µg/mL).
For `COP(=O)(c1ccc(C)c(C)c1)c1c(C(N)=O)[nH]c2ccc(Cl)cc12` (configuration not stated), the EC50 in [1] was 0.2 nM; in data set [2] it was 22.9 nM; in data set [3], 35 nM; in [4] it was 792 nM.
Regarding `COP(=O)(c1cc(C)cc(/C=C/C#N)c1)c1c(C(N)=O)[nH]c2ccc(Cl)cc12` (racemic), the EC50 in [1] came to 2.9 nM; in data set [2], 3 nM; in [3], 3 nM; in [4], 16.6 nM.
Take `COP(=O)(c1cc(C)cc(C)c1)c1c(C(N)=O)[nH]c2ccc(Cl)cc12` (configuration not stated): the EC50 in data set [1] was 1 nM; in [2], 15 nM; in data set [3], 4 nM; in [4], 238 nM. This compound also yielded a solubility in data set [5] of 0.9 µM (≈ 0.339 µg/mL).
For `COP(=O)(c1cccc(/C=C/C#N)c1)c1c(C(N)=O)[nH]c2ccc(Cl)cc12` (configuration not stated), the EC50 is 3.4 nM in [6], 3.2 nM in data set [7], 1.8 nM in data set [8] and 49.5 nM in data set [9].
On to `COP(=O)(c1cc(C(F)(F)F)cc(C(F)(F)F)c1)c1c(C(N)=O)[nH]c2ccc(Cl)cc12` (configuration not stated), for which the EC50 in data set [1] was 24.6 nM; in [2], 527 nM; in [3] it was 947 nM; in [4], over 1000 nM.
Consider `COP(=O)(c1c(C(N)=O)[nH]c2ccc(Cl)cc12)C1CCCCC1` (configuration not stated), for which the EC50 in [1] was 2.5 nM; in [2], 219 nM; in data set [3], 101 nM; in data set [4] it was over 1000 nM.
As for `COP(=O)(c1cncc(/C=C/C#N)c1)c1c(C(N)=O)[nH]c2ccc(Cl)cc12` (configuration not stated), the EC50 in data set [1] was 1 nM; in data set [2], 2.5 nM; in [3] it was 9.5 nM; in data set [4], 192 nM.
For `COP(=O)(c1cc(C)cc(/C=C/C#N)c1)c1c(C(N)=O)[nH]c2ccc(Cl)cc12` (single isomer, unassigned; form 2) the same measures were 190 nM, 377 nM, 824 nM and over 1250 nM.
